Experimental data published in patent US20240199702A1, “CELL-PERMEABLE CYCLIC PEPTIDES AND USES THEREOF” (Unnatural Products Inc., priority 2021, published 2024).
pIC50: −log10 of the molar value. Where a SMILES comes first, the peptide text is derived from it. [ ]: non-standard residue; d: D form. Ala(thiazol-5-yl) = N[C@@H](Cc1cncs1)C(=O)O; Phe(4-Cl) = N[C@@H](Cc1ccc(Cl)cc1)C(=O)O; Phe(4-F) = N[C@@H](Cc1ccc(F)cc1)C(=O)O; NMeF = CN[C@@H](Cc1ccccc1)C(=O)O; NMeNva = CCC[C@H](NC)C(=O)O; NMeV = CN[C@H](C(=O)O)C(C)C; hSer = N[C@@H](CCO)C(=O)O; NMeA = CN[C@@H](C)C(=O)O; dNMeA = CN[C@H](C)C(=O)O

Legend:
[1] = tested on: MKL-1 cells; assay: Cellular Fluorescence Assay 4 (CellTiter-Glo, 72 hours); assay type: cell-based
Experimental: Cellular Fluorescence Assay 4
MKL-1 cells were grown in suspension in T75 flasks in RPMI medium with 10% fetal bovine serum (FBS) at 37° C. with 5% CO2. 40 μL MKL-1 cells were plated into columns 1-22 of white, flat bottom, 384 well plates at a density of 1,000 cells per well in RPMI with 10% FBS. Columns 23 and 24 were filled with 40 μL of media as a positive control. 100 nL of compounds dissolved in DMSO were pin transferred into columns 3-22 of the 384 well plate. Columns 1 and 2 served as negative control wells. Plates were incubated for 72 hours at 37° C. with 5% CO2. After incubation, the cells were given 10 μL of CellTiter-Glo® (Promega®). Luminescence was read on a Molecular Devices SpectraMax i3x plate reader. In some embodiments, the cyclic peptide described herein is a cyclic peptide depicted in Table 1: […]

[2] = tested on: MOLM-13 cells; assay: Cellular Fluorescence Assay 1 (CellTiter-Glo, 72 hours); assay type: cell-based
Experimental: Cellular Fluorescence Assay 1
(§1) MOLM-13 cells were grown in suspension in T75 flasks in RPMI medium with 10% fetal bovine serum (FBS) at 37° C. with 5% CO2. 40 μL ofMOLM-13 cells were plated into columns 1-22 of white, flat bottom, 384 well plates at a density of 1,000 cells per well in RPMI with 10% FBS. Columns 23 and 24 were filled with 40 μL of media as a positive control. 100 nL of compounds dissolved in DMSO were pin transferred into columns 3-22 of the 384 well plate. Columns 1 and 2 served as negative control wells. Plates were incubated for 72 hours at 37° C. with 5% CO2. After incubation, the cells were given 10 μL of CellTiter-Glo® (Promega®). Luminescence was read on a Molecular Devices SpectraMax i3x plate reader.

[3] = molecular target: T1, Human MDM4 (HDM4) 1-114 (Homo sapiens, UniProt O15151); assay: Fluorescence Polarization Assay 2 (MDM4/p53 peptide); assay type: binding; conditions: FAM-labeled p53 peptide, 60 minutes
T1 construct: Human MDM4 (HDM4) 1-114
T1 sequence (O15151 1-114): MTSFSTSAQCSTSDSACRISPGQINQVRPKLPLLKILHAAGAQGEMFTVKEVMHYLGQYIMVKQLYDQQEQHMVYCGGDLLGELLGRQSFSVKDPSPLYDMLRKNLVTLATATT
Experimental: Fluorescence Polarization Assay 2
(§2) Human MDM4 (HDM4) 1-114 (20 μL) and FAM-labeled GGTSFAEYWNLLSP —NH2, 20 nM and 5 nM respectively in 10 mM Tris, 50 mM NaCl, 0.01% Tween20, and 1 mM DTT at pH 7.4 were dispensed into an opaque, black, 384 well plate. Compounds dissolved in DMSO were pin transferred (−100-200 nL) to the 384 well plate containing the MDM4/p53 solution. After incubation for 60 minutes, the fluorescence polarization was read on a Molecular Devices SpectraMax plate reader equipped with a Fluorescein FP cartridge. In addition to probe alone (positive control) and probe/MDM4 (negative control), a titration of linear p53(18-26) was included on every plate as an additional control. IC50 values were fit using either Prism or Collaborative Drug Discovery.

[4] = molecular target: T2, Human MDM2 (HDM2) 1-116 (Homo sapiens, UniProt Q00987); assay: Fluorescence Polarization Assay 1 (MDM2/p53 peptide); assay type: binding; conditions: FAM-labeled p53 peptide, 60 minutes
T2 construct: Human MDM2 (HDM2) 1-116
T2 sequence (Q00987 1-116): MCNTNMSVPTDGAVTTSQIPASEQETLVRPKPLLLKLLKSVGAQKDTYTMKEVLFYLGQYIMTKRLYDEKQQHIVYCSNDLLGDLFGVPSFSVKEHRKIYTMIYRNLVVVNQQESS
Experimental: Fluorescence Polarization Assay 1
as §2, with “MDM2 (HDM2) 1-116” for “MDM4 (HDM4) 1-114”, “GGTSFAEYWNLLSP-NH2, 10” for “GGTSFAEYWNLLSP —NH2, 20”, “(˜100-200” for “(−100-200”, “MDM2/p53” for “MDM4/p53”, “probe/MDM2” for “probe/MDM4”

[5] = tested on: MV4-11 cells; assay: Cellular Fluorescence Assay 2 (CellTiter-Glo, 72 hours); assay type: cell-based
Experimental: Cellular Fluorescence Assay 2
as §1, with “MV4-11” for “MOLM-13”, “of MV4-11” for “ofMOLM-13”

[6] = tested on: WaGa cells; assay: Cellular Fluorescence Assay 3 (CellTiter-Glo, 72 hours); assay type: cell-based
Experimental: Cellular Fluorescence Assay 3
as §1, with “WaGa” for “MOLM-13”, “of WaGa” for “ofMOLM-13”

CCC[C@H]1C(=O)N[C@@H](Cc2ccc(F)cc2)C(=O)N(C)[C@@H](C(C)C)C(=O)N[C@@H](Cc2ccc(Cl)cc2)C(=O)N(C)[C@@H](Cc2ccccc2)C(=O)N2CCC[C@@H]2C(=O)N[C@@H](CCOC)C(=O)N(C)[C@@H](C)C(=O)N[C@@H](Cc2cncs2)C(=O)N(C)[C@H](C)C(=O)N1C [compound 28] (cyclo([NMeA][Ala(thiazol-5-yl)][dNMeA][NMeNva][Phe(4-F)][NMeV][Phe(4-Cl)][NMeF][dP][hSer](Me)))
pIC50 [1]: 5.70 to 6.00
pIC50 [2]: ≤ 6.82
pIC50 [3]: ≤ 7.00
pIC50 [4]: > 7.60
pIC50 [5]: 6.82 to 7.00
pIC50 [6]: ≤ 6.82
